Measurements as given in patent US12121514B2, “Nonselective metabotropic glutamate receptor activators for treatment of attention deficit disorder and 22Q syndrome” (THE CHILDREN'S HOSPITAL OF PHILADELPHIA, priority 2015, dated 2024).
Where “and” joins values, the source holds several entries; their conditions need not be identical. Equal entries are not always repeated.

System: adolescent subjects with ADHD and at least one genetic alteration in an mGluR network gene
Assay: Vanderbilt ADHD score (items 1-18, parent), Phase Ib trial of NFC-1
Type: in vivo, human
Settings: for Change in Vanderbilt / Final Vanderbilt: individual subjects, monohydrate; for Change in Vanderbilt: placebo baseline (week 1) to final (week 5); for Final Vanderbilt: week 5; for Mean (SEM) Vanderbilt ADHD score, Repeated Measures Analysis: overall study population; for Percent of subjects completing the dose escalation to 400 mg bid that show improvement in Vanderbilt ADHD scores (at least 25% decrease) / Percent of subjects completing the dose escalation to 400 mg bid that show robust improvement in Vanderbilt ADHD scores (at least 40% decrease) / Percent of subjects demonstrating robust improvement in Vanderbilt ADHD score (at least 40% decrease) / Percent of subjects with improvement in Vanderbilt ADHD score (at least 25% decrease): relative to placebo (week 1) baseline
Source text: The Vanderbilt Rating Scale is a measure that can be completed by parents or teachers (separate forms, see Vanderbilt Rating Scale Parents and Vanderbilt Rating Scale Teachers). The Vanderbilt scale rates the child's behavior on items such as attention, finishing tasks, hyperactivity, difficulty waiting, and measures of conduct or oppositional defiant disorders—as well as measures of overall school performance and interactions with others. The first 18 items on the Vanderbilt scale correspond to those of the ADHD Rating Scale IV above while the Vanderbilt scale also includes items 19-47 related to other mental disorders including ODD (items 19-26), conduct disorder (items 27-40), anxiety (items 41, 42, and 47), and depression (items 43-46). Each of the behavioral assessment items on the Vanderbilt Scale are rated 0, 1, 2, or 3, with 0=never occurring; 1=occasionally, 2=often, and 3=very often. Thus, the ADHD Rating Scale IV, ADHD Rating Scale V, and items 1-18 of the Vanderbilt Rating Scale are equivalent scales, while additional items on the Vanderbilt Scale assess co-morbid phenotypes and disorders.
Each of the items are rated on a scale of 0, 1, 2, or 3, with 0=never; 1=occasionally, 2=often, and 3=very often. A total score of 0 to 54 is computed based on the answers to the 18 questions.
As used herein an “ADHD rating scale score,” “ADHD score” or “Vanderbilt ADHD score” are used interchangeably to refer to the computed score of the 18 items of the ADHD Rating Scale IV or V or the first 18 items of the Vanderbilt Rating Scale in any of their associated versions, e.g., for parent, teacher, or clinician to complete, and for a pediatric subject or adult subject. Clinical trials may assess the impact of drug or placebo on the ADHD score or Vanderbilt ADHD score (i.e. the score of 0 to 54 based on the first 18 items in the ADHD or Vanderbilt rating scale). In some cases, results of a clinical trial population may be analyzed by comparing the average score or a percentage change in score over time of administration of drug.
An open-label Phase Ib clinical trial was initiated to investigate the safety, pharmacokinetics and efficacy of NFC-1 (fasoracetam monohydrate) in adolescent subjects between the ages of 12 and 17 previously diagnosed with ADHD who also had at least one genetic alteration in an mGluR network gene.
Dose-escalation phase of the trial followed the PK and initial safety assessment and ran over a 5-week period. During week 1, all subjects were administered placebo capsules twice daily. After one week of placebo treatment, patients were started on 50 mg bid NFC-1 for 1 week. If safety and responsiveness data from prior dose level of fasoracetam indicated it was appropriate, subjects were then escalated to the next higher dose (100, 200, or 400 mg). […] Of the 30 trial subjects, 3 received a maximum dose of 100 mg, 9 received a maximum dose of 200 mg, and the remaining 18 received a maximum dose of 400 mg.
All efficacy assessments, except actigraphy, were made at study enrollment (“enrollment baseline”) and again, including actigraphy, once-per-week for the placebo week (“week 1” or “placebo baseline”) and at each of the 4 weeks of NFC-1 treatment. These efficacy measures include items 1-18 of the Vanderbilt scale assessing symptoms related to inattentiveness and hyperactivity-impulsiveness as well as additional questions 19-47 of the Vanderbilt scale assessing other behavioral symptoms (conducted by parent), actigraphy for quantitative measurement of activity, Quotient® ADHD test for objective measurement of micro-motion and shifts in attention state, PERMP-Math test, and CGI-I and CGI-S for assessment of global functioning. […]

[1] = Overall, Week 3, up to 100 mg bid
[2] = Overall, Week 4, up to 200 mg bid
[3] = Overall, Week 5, up to 400 mg bid
[4] = Tier 1, Week 3, up to 100 mg bid
[5] = Tier 1, Week 4, up to 200 mg bid
[6] = Tier 1, Week 5, up to 400 mg bid
[7] = Tier 2, Week 3, up to 100 mg bid
[8] = Tier 2, Week 4, up to 200 mg bid
[9] = Tier 2, Week 5, up to 400 mg bid

Compound: O=C1CC[C@H](C(=O)N2CCCCC2)N1 [NFC-1, fasoracetam monohydrate]
- Vanderbilt (22q syndrome Subject 110, Week 2, 50 mg bid): 20
- Vanderbilt (22q syndrome Subject 110, Week 3, 100 mg bid): 17
- Vanderbilt (22q syndrome Subject 110, Week 4, 200 mg bid): 16
- Vanderbilt (22q syndrome Subject 110, Week 5, 400 mg bid): 17
- Vanderbilt (22q syndrome Subject 127, Week 2, 50 mg bid): 45
- Vanderbilt (22q syndrome Subject 127, Week 3, 100 mg bid): 25
- Vanderbilt (22q syndrome Subject 127, Week 5, 400 mg bid): 33
- change in Vanderbilt ADHD score (Subject 110 (22q syndrome), week 5 compared to week 1): 5 points
- Change in Vanderbilt (max dose 100 mg bid): −8 and −10 and −32
- Final Vanderbilt (max dose 100 mg bid): 0 and 22 and 17
- Change in Vanderbilt (max dose 200 mg bid): −14 and −3 and −9 and −32 and −5 and −1 and −35 and −2 and −8
- Final Vanderbilt (max dose 200 mg bid): 23 and 3 and 0 and 18 and 31 and 1 and 12 and 39 and 30
- Change in Vanderbilt (max dose 400 mg bid): −4 and −5 and 4 and −13 (2×) and 21 and −16 (2×) and 1 and 0 and −9 and −10 and −21 and −6 and −11 and −20 and −1
- Final Vanderbilt (max dose 400 mg bid): 6 and 17 (2×) and 34 and 36 and 46 and 12 (2×) and 0 and 15 and 24 and 14 and 23 and 29 and 33 and 16 and 35
- Mean (SEM) Vanderbilt ADHD score, Repeated Measures Analysis (Week 2, 50 mg bid): 26.4 (8.1)
- Mean (SEM) Vanderbilt ADHD score, Repeated Measures Analysis (Week 3, up to 100 mg bid): 24.0 (8.1)
- Mean (SEM) Vanderbilt ADHD score, Repeated Measures Analysis (Week 4, up to 200 mg bid): 23.3 (8.1)
- Mean (SEM) Vanderbilt ADHD score, Repeated Measures Analysis (Week 5, up to 400 mg bid): 22.5 (8.1)
- Percent of subjects completing the dose escalation to 400 mg bid that show improvement in Vanderbilt ADHD scores (at least 25% decrease) (Overall, Week 2, 50 mg bid): 14%
- Percent of subjects completing the dose escalation to 400 mg bid that show robust improvement in Vanderbilt ADHD scores (at least 40% decrease) (Overall, Week 2, 50 mg bid): 7%
- Percent of subjects demonstrating robust improvement in Vanderbilt ADHD score (at least 40% decrease) (Overall, Week 2, 50 mg bid): 7%
- Percent of subjects with improvement in Vanderbilt ADHD score (at least 25% decrease) (Overall, Week 2, 50 mg bid): 25%
- Percent of subjects completing the dose escalation to 400 mg bid that show improvement in Vanderbilt ADHD scores (at least 25% decrease) (Overall, Week 3, 100 mg bid): 36%
- Percent of subjects completing the dose escalation to 400 mg bid that show robust improvement in Vanderbilt ADHD scores (at least 40% decrease) (Overall, Week 3, 100 mg bid): 29%
- Percent of subjects demonstrating robust improvement in Vanderbilt ADHD score (at least 40% decrease) [1]: 25%
- Percent of subjects with improvement in Vanderbilt ADHD score (at least 25% decrease) [1]: 43%
- Percent of subjects completing the dose escalation to 400 mg bid that show improvement in Vanderbilt ADHD scores (at least 25% decrease) (Overall, Week 4, 200 mg bid): 36%
- Percent of subjects completing the dose escalation to 400 mg bid that show robust improvement in Vanderbilt ADHD scores (at least 40% decrease) (Overall, Week 4, 200 mg bid): 21%
- Percent of subjects demonstrating robust improvement in Vanderbilt ADHD score (at least 40% decrease) [2]: 32%
- Percent of subjects with improvement in Vanderbilt ADHD score (at least 25% decrease) [2]: 43%
- Percent of subjects completing the dose escalation to 400 mg bid that show improvement in Vanderbilt ADHD scores (at least 25% decrease) (Overall, Week 5, 400 mg bid): 57%
- Percent of subjects completing the dose escalation to 400 mg bid that show robust improvement in Vanderbilt ADHD scores (at least 40% decrease) (Overall, Week 5, 400 mg bid): 36%
- Percent of subjects demonstrating robust improvement in Vanderbilt ADHD score (at least 40% decrease) [3]: 37%
- Percent of subjects with improvement in Vanderbilt ADHD score (at least 25% decrease) [3]: 52%
- Percent of subjects completing the dose escalation to 400 mg bid that show improvement in Vanderbilt ADHD scores (at least 25% decrease) (Tier 1, Week 2, 50 mg bid): 22%
- Percent of subjects completing the dose escalation to 400 mg bid that show robust improvement in Vanderbilt ADHD scores (at least 40% decrease) (Tier 1, Week 2, 50 mg bid): 11%
- Percent of subjects demonstrating robust improvement in Vanderbilt ADHD score (at least 40% decrease) (Tier 1, Week 2, 50 mg bid): 12%
- Percent of subjects with improvement in Vanderbilt ADHD score (at least 25% decrease) (Tier 1, Week 2, 50 mg bid): 29%
- Percent of subjects completing the dose escalation to 400 mg bid that show improvement in Vanderbilt ADHD scores (at least 25% decrease) (Tier 1, Week 3, 100 mg bid): 44%
- Percent of subjects completing the dose escalation to 400 mg bid that show robust improvement in Vanderbilt ADHD scores (at least 40% decrease) (Tier 1, Week 3, 100 mg bid): 44%
- Percent of subjects demonstrating robust improvement in Vanderbilt ADHD score (at least 40% decrease) [4]: 44%
- Percent of subjects with improvement in Vanderbilt ADHD score (at least 25% decrease) [4]: 50%
- Percent of subjects completing the dose escalation to 400 mg bid that show improvement in Vanderbilt ADHD scores (at least 25% decrease) (Tier 1, Week 4, 200 mg bid): 44%
- Percent of subjects completing the dose escalation to 400 mg bid that show robust improvement in Vanderbilt ADHD scores (at least 40% decrease) (Tier 1, Week 4, 200 mg bid): 33%
- Percent of subjects demonstrating robust improvement in Vanderbilt ADHD score (at least 40% decrease) [5]: 50%
- Percent of subjects with improvement in Vanderbilt ADHD score (at least 25% decrease) [5]: 56%
- Percent of subjects completing the dose escalation to 400 mg bid that show improvement in Vanderbilt ADHD scores (at least 25% decrease) (Tier 1, Week 5, 400 mg bid): 56%
- Percent of subjects completing the dose escalation to 400 mg bid that show robust improvement in Vanderbilt ADHD scores (at least 40% decrease) (Tier 1, Week 5, 400 mg bid): 33%
- Percent of subjects demonstrating robust improvement in Vanderbilt ADHD score (at least 40% decrease) [6]: 44%
- Percent of subjects with improvement in Vanderbilt ADHD score (at least 25% decrease) [6]: 56%
- Percent of subjects completing the dose escalation to 400 mg bid that show improvement in Vanderbilt ADHD scores (at least 25% decrease) (Tier 2, Week 2, 50 mg bid): 0%
- Percent of subjects completing the dose escalation to 400 mg bid that show robust improvement in Vanderbilt ADHD scores (at least 40% decrease) (Tier 2, Week 2, 50 mg bid): 0%
- Percent of subjects demonstrating robust improvement in Vanderbilt ADHD score (at least 40% decrease) (Tier 2, Week 2, 50 mg bid): 0%
- Percent of subjects with improvement in Vanderbilt ADHD score (at least 25% decrease) (Tier 2, Week 2, 50 mg bid): 29%
- Percent of subjects completing the dose escalation to 400 mg bid that show improvement in Vanderbilt ADHD scores (at least 25% decrease) (Tier 2, Week 3, 100 mg bid): 20%
- Percent of subjects completing the dose escalation to 400 mg bid that show robust improvement in Vanderbilt ADHD scores (at least 40% decrease) (Tier 2, Week 3, 100 mg bid): 0%
- Percent of subjects demonstrating robust improvement in Vanderbilt ADHD score (at least 40% decrease) [7]: 0%
- Percent of subjects with improvement in Vanderbilt ADHD score (at least 25% decrease) [7]: 43%
- Percent of subjects completing the dose escalation to 400 mg bid that show improvement in Vanderbilt ADHD scores (at least 25% decrease) (Tier 2, Week 4, 200 mg bid): 20%
- Percent of subjects completing the dose escalation to 400 mg bid that show robust improvement in Vanderbilt ADHD scores (at least 40% decrease) (Tier 2, Week 4, 200 mg bid): 0%
- Percent of subjects demonstrating robust improvement in Vanderbilt ADHD score (at least 40% decrease) [8]: 14%
- Percent of subjects with improvement in Vanderbilt ADHD score (at least 25% decrease) [8]: 43%
- Percent of subjects completing the dose escalation to 400 mg bid that show improvement in Vanderbilt ADHD scores (at least 25% decrease) (Tier 2, Week 5, 400 mg bid): 60%
- Percent of subjects completing the dose escalation to 400 mg bid that show robust improvement in Vanderbilt ADHD scores (at least 40% decrease) (Tier 2, Week 5, 400 mg bid): 40%
- Percent of subjects demonstrating robust improvement in Vanderbilt ADHD score (at least 40% decrease) [9]: 43%
- Percent of subjects with improvement in Vanderbilt ADHD score (at least 25% decrease) [9]: 71%
- Percent of subjects completing the dose escalation to 400 mg bid that show improvement in Vanderbilt ADHD scores (at least 25% decrease) (Tier 3, Week 2, 50 mg bid): 33%
- Percent of subjects completing the dose escalation to 400 mg bid that show robust improvement in Vanderbilt ADHD scores (at least 40% decrease) (Tier 3, Week 2, 50 mg bid): 33%
- Percent of subjects demonstrating robust improvement in Vanderbilt ADHD score (at least 40% decrease) (Tier 3, Week 2, 50 mg bid): 0%
- Percent of subjects with improvement in Vanderbilt ADHD score (at least 25% decrease) (Tier 3, Week 2, 50 mg bid): 0%
- Percent of subjects completing the dose escalation to 400 mg bid that show improvement in Vanderbilt ADHD scores (at least 25% decrease) (Tier 3, Week 3, 100 mg bid): 33%
- Percent of subjects completing the dose escalation to 400 mg bid that show robust improvement in Vanderbilt ADHD scores (at least 40% decrease) (Tier 3, Week 3, 100 mg bid): 0%
